IC50 data for 47 compounds are collected here from US20240336602A1 (Katholieke Universiteit Leuven, priority 2020, published 2024).

For the test, the target named is T1, mouse TRPM3a2 (mTRPM3) ion channel (Mus musculus, UniProt J9SQF3).
T1 construct: expressed in transfected cells; host or cells: flip-in HEK293
The test can be described thus: TRPM3 ion channel driven Ca2+ uptake, Fluo-4 AM assay (PS-stimulated, overexpressing flip-in HEK293 cells). Type of test: cell-based. The procedure: In order to monitor the inhibition of the mouse TRPM3a2 (mTRPM3) ion channel by the compounds of the invention, a cellular system making use of an mTRPM3alpha2 or hTRPM3 overexpressing cell line (flip-in HEK293) was used. The TRPM3 channel was stimulated/opened with Pregnenolone sulfate (PS) (50 μM) which results in Ca^2+ influx.
For mTRPM3, the intracellular Ca^2+ was measured with a Calcium responsive dye, Fluor-4 AM ester (Invitrogen). Cells were cultured until a confluence of 80-90%, washed with Versene (Invitrogen) and detached from the surface by a short incubation with 0.05% Trypsin (Invitrogen). The trypsination process was stopped by the addition of complete cell culture medium (DMEM, glutamax, 10% FCS, NEAA, Pen-Strep). Cells were collected and resuspended in Krebs buffer without Calcium at RT.
Prior the cell seeding (±2000 cells/well into a black, 384 well plate (Greiner)) the diluted compound was added in the assay plate, together with the PS dissolved in Krebs buffer containing Calcium. […] Directly after cell addition the plates were read on an Envision fluorescence reader (Perkin Elmer) by an Excitation of 485 nm and emission at 535 nm.
Channel inhibition was calculated compared to a non-PS stimulated control versus a condition stimulated with PS (50 μM) with vehicle. The ability of the compounds of the invention to inhibit this activity was determined as: Percentage inhibition=[1-((RFU determined for sample with test compound present—RFU determined for sample with positive control inhibitor) divided by (RFU determined in the presence of vehicle—RFU determined for sample with positive control inhibitor))]*100.

Where [1] appears, read: PS (50 μM) stimulated, cpd 001-199.
Setting [2] is: PS (50 μM) stimulated Ca2+ influx, HEK293, cpds 300-399.
Setting [3] is: PS (50 μM) stimulated, cpds. 400-499.

T1 sequence (J9SQF3 1-1709 isoform J9SQF3-12): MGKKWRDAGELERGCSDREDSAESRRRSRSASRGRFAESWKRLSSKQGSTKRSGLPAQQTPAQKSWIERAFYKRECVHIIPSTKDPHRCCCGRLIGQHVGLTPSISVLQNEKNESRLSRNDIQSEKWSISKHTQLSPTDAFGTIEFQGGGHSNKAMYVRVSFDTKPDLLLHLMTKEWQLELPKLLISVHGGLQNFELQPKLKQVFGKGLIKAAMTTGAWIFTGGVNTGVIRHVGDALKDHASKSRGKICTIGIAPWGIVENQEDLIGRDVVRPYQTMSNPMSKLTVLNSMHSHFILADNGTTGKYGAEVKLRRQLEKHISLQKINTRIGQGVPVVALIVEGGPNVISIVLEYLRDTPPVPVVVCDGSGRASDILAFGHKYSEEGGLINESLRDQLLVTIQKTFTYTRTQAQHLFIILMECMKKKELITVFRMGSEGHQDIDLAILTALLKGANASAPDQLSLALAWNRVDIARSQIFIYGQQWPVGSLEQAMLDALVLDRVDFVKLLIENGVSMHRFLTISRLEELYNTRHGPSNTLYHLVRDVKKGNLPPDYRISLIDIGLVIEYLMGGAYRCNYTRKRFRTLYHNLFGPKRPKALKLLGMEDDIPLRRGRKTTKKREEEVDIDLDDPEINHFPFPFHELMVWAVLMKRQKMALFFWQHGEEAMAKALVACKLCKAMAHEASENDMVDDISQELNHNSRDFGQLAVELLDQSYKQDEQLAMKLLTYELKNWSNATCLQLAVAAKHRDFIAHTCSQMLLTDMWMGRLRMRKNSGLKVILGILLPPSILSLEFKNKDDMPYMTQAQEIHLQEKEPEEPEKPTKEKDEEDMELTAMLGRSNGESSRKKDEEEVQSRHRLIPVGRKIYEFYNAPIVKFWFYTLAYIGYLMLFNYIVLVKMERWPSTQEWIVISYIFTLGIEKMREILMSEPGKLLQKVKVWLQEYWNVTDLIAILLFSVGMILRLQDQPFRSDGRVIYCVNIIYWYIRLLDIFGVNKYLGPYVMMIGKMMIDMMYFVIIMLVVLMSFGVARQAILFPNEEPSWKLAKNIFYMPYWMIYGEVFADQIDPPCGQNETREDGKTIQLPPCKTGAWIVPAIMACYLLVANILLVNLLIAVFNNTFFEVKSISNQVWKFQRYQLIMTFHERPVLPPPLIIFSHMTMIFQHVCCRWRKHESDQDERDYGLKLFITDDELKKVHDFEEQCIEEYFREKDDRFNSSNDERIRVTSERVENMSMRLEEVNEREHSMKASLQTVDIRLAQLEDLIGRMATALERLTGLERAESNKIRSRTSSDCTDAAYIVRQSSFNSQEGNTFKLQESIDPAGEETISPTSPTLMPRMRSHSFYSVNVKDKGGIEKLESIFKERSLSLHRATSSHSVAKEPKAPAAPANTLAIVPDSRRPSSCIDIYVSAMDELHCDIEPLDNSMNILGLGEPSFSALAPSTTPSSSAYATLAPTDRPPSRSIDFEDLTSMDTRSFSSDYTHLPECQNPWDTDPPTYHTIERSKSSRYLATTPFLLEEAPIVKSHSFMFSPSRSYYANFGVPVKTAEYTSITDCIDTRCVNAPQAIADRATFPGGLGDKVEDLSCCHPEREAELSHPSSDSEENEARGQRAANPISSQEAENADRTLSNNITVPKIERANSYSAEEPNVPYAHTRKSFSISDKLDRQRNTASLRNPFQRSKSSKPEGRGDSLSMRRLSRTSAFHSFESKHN

Usually IC50 stands for the concentration that gives 50% inhibition. `Cc1oc2ccc(OCc3cccnc3C(F)(F)F)cc2c1C(=O)O` displayed an IC50 under setting [1] of 1000 to 20000 nM.

In the case of `Cc1ncsc1COc1ccc2oc(C)c(C(=O)NC3CCN(C)CC3(F)F)c2c1` (single isomer, unassigned) [110 - En 1], under setting [1], the IC50 was at most 1000 nM. The compound `Cc1ncsc1COc1ccc2oc(C)c(C(=O)NC3CN(C)CCC3(F)F)c2c1` (single isomer, unassigned) [118 - En 1] had an IC50 under setting [1] of at most 1000 nM.

Take `Cc1ncsc1COc1ccc2oc(C)c(C(=O)NC3CN(C)CC3(F)F)c2c1` (single isomer, unassigned) [123 - En 1]: under setting [1], the IC50 is at most 1000 nM. Under setting [1], `Cc1oc2ccc(OCc3cccnc3C(F)(F)F)cc2c1C(=O)NC1(CCO)CCOC1` (single isomer, unassigned) [126 - En 1] came in with an IC50 of at most 1000 nM.

Take `Cc1oc2ccc(OCc3cccnc3C(F)(F)F)cc2c1C(=O)NC1CCN(C)CC1(F)F` (single isomer, unassigned) [130 - En 1]: under setting [1], the IC50 was at most 1000 nM. Still for that read-out and setting: the same measure for `Cc1oc2ccc(OCc3cccnc3C(F)(F)F)cc2c1C(=O)NC1CN(C)CCC1(F)F` (single isomer, unassigned) [131 - En 1]: at most 1000 nM; for `Cc1oc2ccc(OCc3cccnc3C(F)(F)F)cc2c1C(=O)NC1CN(CCO)CC1(F)F` (single isomer, unassigned) [134 - En 1]: 1000 to 20000 nM. `Cc1oc2ccc(OCc3cccnc3C(F)(F)F)cc2c1C(=O)NC1CN(CCO)CC1(F)F` (single isomer, unassigned) [134 - En 2] displayed an IC50 under setting [1] of at most 1000 nM. `Cc1oc2ccc(OCc3cccnc3C(F)(F)F)cc2c1C(=O)NC1CN(C)CC(F)(F)C1` (single isomer, unassigned) [141 - En 1] displayed an IC50 under setting [1] of at most 1000 nM.

In the case of `Cc1ncsc1COc1ccc2oc(C)c(C(=O)NC3CN(CCO)CC3(F)F)c2c1` (single isomer, unassigned) [151 - En 1], under setting [1], the IC50 is at most 1000 nM. Same read-out and setting: to `Cc1ncsc1COc1ccc2oc(C)c(C(=O)NC3CN(CC(F)(F)F)CC3(F)F)c2c1` (single isomer, unassigned) [155 - En 1, N-(4,4-difluoro-1-(2,2,2-trifluoroethyl)pyrrolidin-3-yl)-2-methyl-5-((4-methylthiazol-5-yl)me-thoxy)benzofuran-3-carboxamide] belongs at most 1000 nM. With `Cc1ncsc1COc1ccc2oc(C)c(C(=O)NC3CN(CC(F)(F)F)CC3(F)F)c2c1` (single isomer, unassigned) [155 - En 2, N-(4,4-difluoro-1-(2,2,2-trifluoroethyl)pyrrolidin-3-yl)-2-methyl-5-((4-methylthiazol-5-yl)me-thoxy)benzofuran-3-carboxamide], under setting [1], the IC50 was at most 1000 nM. Still for that read-out and setting: to `Cc1ncsc1COc1ccc2oc(C)c(C(=O)NC3CN(C)CC(F)(F)C3)c2c1` (single isomer, unassigned) [163 - En 1] belongs at most 1000 nM; to `Cc1oc2cc(Cl)c(OCc3cccnc3C(F)(F)F)cc2c1C(=O)NC1CCNCC1(F)F` (single isomer, unassigned) [165 - En 1], at most 1000 nM.

In the case of `Cc1oc2cc(Cl)c(OCc3cccnc3C(F)(F)F)cc2c1C(=O)NC1CCNCC1(F)F` (single isomer, unassigned) [165 - En 2], the IC50 under setting [1] lay within 1000 to 20000 nM.

Under setting [1], `COCCN1CCC(NC(=O)c2c(C)oc3ccc(OCc4scnc4C)cc23)C1=O` (single isomer, unassigned) [169 - En 1] registered an IC50 of at most 1000 nM. Under setting [1], `COCCN1CCC(NC(=O)c2c(C)oc3ccc(OCc4scnc4C)cc23)C1=O` (single isomer, unassigned) [169 - En 2] yielded an IC50 of at most 1000 nM.

Under setting [1], `Cc1ncsc1COc1ccc2oc(C)c(C(=O)NC3CC(=O)N(CCO)C3)c2c1` (single isomer, unassigned) [180 - En 1] came in with an IC50 of 1000 to 20000 nM. `Cc1oc2c(C)cc(OCc3cccnc3C(F)(F)F)cc2c1C(=O)NC1CCNCC1(F)F` (single isomer, unassigned) [183 - En 1, N-(3,3-difluoropiperidin-4-yl)-2,7-dimethyl-5-((2-(trifluoromethyl)pyridin-3-yl)methoxy)benzofuran-3-carboxamide] displayed an IC50 under setting [1] of 1000 to 20000 nM. In turn, `Cc1oc2c(C)cc(OCc3cccnc3C(F)(F)F)cc2c1C(=O)NC1CCNCC1(F)F` (single isomer, unassigned) [183 - En 2, N-(3,3-difluoropiperidin-4-yl)-2,7-dimethyl-5-((2-(trifluoromethyl)pyridin-3-yl)methoxy)benzofuran-3-carboxamide] registered an IC50 under setting [1] of at least 20000 nM. In the case of `Cc1oc2c(Cl)cc(OCc3cccnc3C(F)(F)F)cc2c1C(=O)NC1CCNCC1(F)F` (single isomer, unassigned) [184 - En 1], the IC50 under setting [1] was in the range of 1000 to 20000 nM. As for `Cc1oc2c(Cl)cc(OCc3cccnc3C(F)(F)F)cc2c1C(=O)NC1CCNCC1(F)F` (single isomer, unassigned) [184 - En 2], the IC50 under setting [1] is at least 20000 nM.

As to `Cc1oc2cc(C#N)c(OCc3cccnc3C(F)(F)F)cc2c1C(=O)NC1CCNCC1(F)F` (single isomer, unassigned) [195 - En 2, 6-cyano-N-(3,3-difluoropiperidin-4-yl)-2-methyl-5-((2-(trifluoromethyl)pyridin-3-yl)methoxy)-benzofuran-3-carboxamide], the IC50 under setting [1] was in the range of 1000 to 20000 nM. The compound `Cc1ncsc1COc1ccc2oc(C)c(C(=O)NC3CCN(CCO)C3=O)c2c1F` (single isomer, unassigned) [326 - En 1] came in with an IC50 under setting [2] of at most 1000 nM.

On to `Cc1ncsc1COc1ccc2oc(C)c(C(=O)NC3CCN(CCO)C3=O)c2c1F` (single isomer, unassigned) [326 - En 2], for which, under setting [2], the IC50 lay within 1000 to 20000 nM. Take `Cc1oc2ccc(OCc3ccnn3CC(F)F)cc2c1C(=O)NC1(CO)CCNC1=O` (single isomer, unassigned) [333 - En 1]: under setting [2], the concentration for half-maximal inhibition (IC50) was at most 1000 nM. On the same count and under the same terms, the same measure for `CCOc1ncccc1COc1ccc2oc(C)c(C(=O)NC3CCN(CCO)C3=O)c2c1` (single isomer, unassigned) [348 - En 1]: at most 1000 nM; for `Cc1oc2ccc(OCc3c(F)cnn3C)cc2c1C(=O)NC1(CO)CCCNC1=O` (single isomer, unassigned) [355 - En 1]: at most 1000 nM. Take `Cc1oc2ccc(OCc3c(F)cnn3C)cc2c1C(=O)NC1(CO)CCNC1=O` (single isomer, unassigned) [356 - En 1]: the IC50 under setting [2] is at most 1000 nM. As to `Cc1ncsc1COc1cc2c(C(=O)NC3CCN(CCO)C3=O)c(C)oc2cc1F` (single isomer, unassigned) [360 - En 1], the IC50 under setting [2] is at most 1000 nM. On to `Cc1ncsc1COc1cc(F)c2oc(C)c(C(=O)NC3CCN(CCO)C3=O)c2c1` (single isomer, unassigned) [365 - En 1], for which the IC50 under setting [2] is at least 20000 nM.

Under setting [2], `Cc1ncc(COc2ccc3oc(C)c(C(=O)NC4COCC4O)c3c2)s1` (single isomer, unassigned) [386 - En 1] registered an IC50 of at most 1000 nM.

Under setting [2], `Cc1ncc(COc2ccc3oc(C)c(C(=O)NC4COCC4O)c3c2)s1` (single isomer, unassigned) [386 - En 2] gave an IC50 of 1000 to 20000 nM. Still for that read-out and setting: to `Cc1oc2ccc(OCc3ccccn3)cc2c1C(=O)NC1COCC1O` (single isomer, unassigned) [387 - En 1] belongs at most 1000 nM; to `Cc1ncc(COc2ccc3oc(C)c(C(=O)NC4COCC4O)c3c2)s1` (single isomer, unassigned) [388 - En 1], at most 1000 nM.

Under setting [2], `Cc1ncc(COc2ccc3oc(C)c(C(=O)NC4COCC4O)c3c2)s1` (single isomer, unassigned) [388 - En 2] came in with an IC50 of 1000 to 20000 nM. `Cc1ncc(C(C)Oc2ccc3oc(C)c(C(=O)NC(CO)C(N)=O)c3c2)s1` (single isomer, unassigned) [395 - Dia 1] displayed an IC50 under setting [2] of at most 1000 nM. As for `Cc1ncsc1COc1ccc2oc(C)c(C(=O)NC(C)C(=O)N(C)CCO)c2c1` (single isomer, unassigned) [396 - En 1], the IC50 under setting [2] was at most 1000 nM.

Under setting [2], `Cc1ncsc1COc1ccc2oc(C)c(C(=O)NC(C)C(=O)NCCO)c2c1` (single isomer, unassigned) [397 - En 1] displayed an IC50 of at most 1000 nM. As to `Cc1oc2ccc(OCc3nccn3C)cc2c1C(=O)NC1CCN(CCO)C1=O` (single isomer, unassigned) [403 - En 1], the IC50 under setting [3] is 1000 to 20000 nM. Regarding `Cc1oc2ccc(OCc3nccn3C)cc2c1C(=O)NC1CCN(CCO)C1=O` (single isomer, unassigned) [403 - En 2], the IC50 under setting [3] is at least 20000 nM. Under setting [3], `Cc1oc2ccc(OCc3ccnn3C)cc2c1C(=O)NC1CCN(CCO)C1=O` (single isomer, unassigned) [404 - En 1] gave an IC50 of 1000 to 20000 nM.

Take `Cc1oc2ccc(OCc3ccccn3)cc2c1C(=O)NC1CCN(CCO)C1=O` (single isomer, unassigned) [406 - En 1]: the IC50 under setting [3] was at most 1000 nM. On the same count and under the same terms, the same measure for `Cc1oc2ccc(OCc3nccs3)cc2c1C(=O)NC1CCN(CCO)C1=O` (single isomer, unassigned) [407 - En 1]: at most 1000 nM.

The compound `Cc1oc2ccc(OCc3nccs3)cc2c1C(=O)NC1CCN(CCO)C1=O` (single isomer, unassigned) [407 - En 2] came in with an IC50 under setting [3] of 1000 to 20000 nM. Take `Cc1oc2ccc(OCc3cccnc3O)cc2c1C(=O)NC1CCN(CCO)C1=O` (single isomer, unassigned) [408 - En 1]: the 50% inhibitory concentration (IC50) under setting [3] is at most 1000 nM.
